The record followed here is patent US6667313B1, “8-substituted-6-triflouromethyl-9-pyrido [3,2-G] quinoline compounds as androgen receptor modulators” (Ligand Pharmaceuticals Inc., priority 1999, dated 2003).

The target in assay [1] is T1, human AR (Homo sapiens, UniProt P10275).
T1 sequence (P10275 1-920): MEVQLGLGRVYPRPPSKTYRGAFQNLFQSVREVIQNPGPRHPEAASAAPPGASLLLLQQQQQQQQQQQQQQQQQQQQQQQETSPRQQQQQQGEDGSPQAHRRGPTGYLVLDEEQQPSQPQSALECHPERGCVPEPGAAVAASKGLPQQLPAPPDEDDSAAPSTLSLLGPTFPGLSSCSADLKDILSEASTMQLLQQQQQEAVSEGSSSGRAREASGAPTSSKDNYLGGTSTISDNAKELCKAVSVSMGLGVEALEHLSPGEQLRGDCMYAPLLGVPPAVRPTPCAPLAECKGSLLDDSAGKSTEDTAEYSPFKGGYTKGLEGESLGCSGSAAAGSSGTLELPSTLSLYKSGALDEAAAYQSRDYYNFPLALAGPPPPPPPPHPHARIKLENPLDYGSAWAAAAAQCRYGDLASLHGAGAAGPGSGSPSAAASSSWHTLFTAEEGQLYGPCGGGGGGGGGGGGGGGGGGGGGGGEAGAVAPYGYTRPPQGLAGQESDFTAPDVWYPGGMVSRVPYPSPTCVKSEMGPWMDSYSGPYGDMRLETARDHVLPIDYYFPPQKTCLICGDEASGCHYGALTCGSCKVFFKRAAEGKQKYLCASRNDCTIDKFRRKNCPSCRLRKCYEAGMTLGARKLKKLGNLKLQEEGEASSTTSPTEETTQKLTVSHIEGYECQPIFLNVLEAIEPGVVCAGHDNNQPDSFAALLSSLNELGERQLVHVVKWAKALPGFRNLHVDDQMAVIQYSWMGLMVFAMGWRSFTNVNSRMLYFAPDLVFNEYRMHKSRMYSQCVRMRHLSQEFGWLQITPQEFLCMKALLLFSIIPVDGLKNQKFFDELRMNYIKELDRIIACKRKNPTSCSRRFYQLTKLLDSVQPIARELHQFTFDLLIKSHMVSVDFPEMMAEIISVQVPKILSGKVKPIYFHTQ
Description: Co-transfection assay, AR agonist, CV-1 cells. The class given is cell-based. The following applies: CV-1 cells; percent maximal response relative to reference agonist DHT. From the text:
(§1) The reporter plasmid, MTV-LUC, contains the cDNA for firefly luciferase (LUC) under control of themouse mammary tumor virus (MTV) long terminal repeat, a conditional promoter containing an androgen response element. See e.g., Berger et al. supra. In addition, pRS-β-Gal, coding for constitutive expression of E. coli β-galactosidase (β-Gal), was included as an internal control for evaluation of transfection efficiency and compound toxicity.
(§2) Three to four replicates were used for each sample.
(§3) After 40 hours, the cells were washed with PBS, lysed with a Triton X-100-based buffer and assayed for LUC and β-Gal activities using a luminometer or spectrophotometer, respectively. For each replicate, the normalized response (NR) was calculated as:
(§4) where β-Gal rate=β-Ga·1×10^−5/β-Gal incubation time.

The target of assay [2] is T1, human AR. Description: Co-transfection assay, AR antagonist, CV-1 cells (in presence of DHT). Type of assay: cell-based. As to conditions: for AR Antagonist CV-1 Cells Efficacy (%): percent maximal inhibition, DHT at EC50.
Text: as §1, §2, §3, §4

Assay [3] deals with T1, human AR. Description: AR whole cell competitive binding assay (3H-DHT), COS-1 cells. How it is done:
AR Binding: For the whole cell binding assay, COS-1 cells in 96-well microtiter plates containing DMEM-10% FBS were transfected as described above with the following plasmid DNA: pRShAR (2 ng/well), pRS-β-Gal (50 ng/well) and pGEM (48 ng/well). Six hours after transfection, media was removed, the cells were washed with PBS and fresh media was added. The next day, the media was changed to DMEM-serum free to remove any endogenous ligand that might be complexed with the receptor in the cells.
Three replicates were used for each sample. […] The remaining media was removed, the cells were washed three times with PBS to remove unbound ligand, and cells were lysed with a Triton X-100-based buffer.
For the saturation analyses, the difference between the total binding and the nonspecific binding, normalized by the β-Gal rate, was defined as specific binding.
After correcting for non-specific binding, IC50 values were determined. […] The IC50 value was determined graphically from a log-logit plot of the data. The Ki values were determined by application of the Cheng-Prusoff equivuation to the IC50 values, the labeled ligand concentration and the Kd of the labeled ligand.

Assay [4] deals with T2, ER (Homo sapiens, UniProt P03372).
T2 construct: expressed in transfected cells; host or cells: CV-1 cells (inferred: the only cells described for the co-transfection assay)
T2 sequence (P03372 1-595): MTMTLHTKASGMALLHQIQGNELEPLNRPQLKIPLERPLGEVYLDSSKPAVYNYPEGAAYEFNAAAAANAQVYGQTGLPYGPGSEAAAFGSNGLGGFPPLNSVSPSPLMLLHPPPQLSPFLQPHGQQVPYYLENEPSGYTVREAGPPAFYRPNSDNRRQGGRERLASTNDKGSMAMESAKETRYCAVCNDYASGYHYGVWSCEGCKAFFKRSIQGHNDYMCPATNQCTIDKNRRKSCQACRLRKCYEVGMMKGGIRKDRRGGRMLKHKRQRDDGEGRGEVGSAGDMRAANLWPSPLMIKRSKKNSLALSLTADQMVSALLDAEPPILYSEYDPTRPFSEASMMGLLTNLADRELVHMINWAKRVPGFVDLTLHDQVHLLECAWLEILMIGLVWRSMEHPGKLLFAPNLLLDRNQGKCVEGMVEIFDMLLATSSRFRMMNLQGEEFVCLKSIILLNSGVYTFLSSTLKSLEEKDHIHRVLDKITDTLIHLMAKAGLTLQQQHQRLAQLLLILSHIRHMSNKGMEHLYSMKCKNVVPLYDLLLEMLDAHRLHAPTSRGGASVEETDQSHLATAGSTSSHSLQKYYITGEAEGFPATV
The experiment in a line: Co-transfection assay, ER agonist. As to conditions: Table 2; read-out: ER Potency Agon. Type of assay: cell-based.

Assay [5] deals with T2, ER. The experiment in a line: Co-transfection assay, ER antagonist. Type of assay: cell-based. The following applies: Table 2; read-out: ER Potency Antag.

Molecules are shown by their SMILES.

For the compound `CC1(C)CCc2cc3c(C(F)(F)F)c(F)c(Br)nc3cc2N1` [Compound 119, 8-Bromo-7-fluoro-1,2,3,4-tetrahydro-2,2-dimethyl-6-trifluoromethyl-9-pyrido[3,2-g]quinoline], the “AR Agonist CV-1 Cells Efficacy (%)” value in assay [1] is listed as 6%. In addition, in assay [2], the IC50 stood at 0.047 ± 0.027 µM and the “AR Antagonist CV-1 Cells Efficacy (%)” value is reported as 73 ± 7%. Besides, in assay [3], the Ki turned out to be 0.091 ± 0.068 µM.

On to `CC1(C)CCc2cc3c(C(F)(F)F)c(F)cnc3cc2N1` [Compound 126, 7-Fluoro-1,2,3,4-tetrahydro-2,2-dimethyl-6-trifluoromethyl-9-pyrido[3,2-g]quinoline], for which the “AR Agonist CV-1 Cells Efficacy (%)” value in assay [1] worked out at 3 ± 5%. Besides, in assay [2], the IC50 came to 0.181 ± 0.073 µM and the “AR Antagonist CV-1 Cells Efficacy (%)” value is recorded as 93 ± 4%. This compound gave a Ki in assay [3] of 0.058 µM.

On to `CC(C)(O)C(=O)Nc1ccc([N+](=O)[O-])c(C(F)(F)F)c1` [Flut], for which the EC50 in assay [4] is more than 10 µM. The IC50 in assay [5] is more than 10 µM.
